The values below come from PMC6434083, “Identification and characterization of two types of amino acid-regulated acetyltransferases in actinobacteria” (Bioscience Reports, 2017).

The target in data set [1] is T1, SvePatA (Streptomyces venezuelae, UniProt F2RA54, K112A).
T1 construct: gene SVEN_0867; gene amplified from genomic DNA, pET-28a, E. coli BL21-DE3, purified; ACT-GNAT domains
Put plainly: acetyltransferase activity with Asn. In kind it is biochemical. As to conditions: allosteric; co-substrates Ac-CoA and SveAcs.

Data set [2] concerns the target T2, SvePatA (Streptomyces venezuelae, UniProt F2RA54).
T2 construct: gene SVEN_0867; gene amplified from genomic DNA, pET-28a, E. coli BL21-DE3, purified; ACT-GNAT domains
T2 sequence (F2RA54 1-488): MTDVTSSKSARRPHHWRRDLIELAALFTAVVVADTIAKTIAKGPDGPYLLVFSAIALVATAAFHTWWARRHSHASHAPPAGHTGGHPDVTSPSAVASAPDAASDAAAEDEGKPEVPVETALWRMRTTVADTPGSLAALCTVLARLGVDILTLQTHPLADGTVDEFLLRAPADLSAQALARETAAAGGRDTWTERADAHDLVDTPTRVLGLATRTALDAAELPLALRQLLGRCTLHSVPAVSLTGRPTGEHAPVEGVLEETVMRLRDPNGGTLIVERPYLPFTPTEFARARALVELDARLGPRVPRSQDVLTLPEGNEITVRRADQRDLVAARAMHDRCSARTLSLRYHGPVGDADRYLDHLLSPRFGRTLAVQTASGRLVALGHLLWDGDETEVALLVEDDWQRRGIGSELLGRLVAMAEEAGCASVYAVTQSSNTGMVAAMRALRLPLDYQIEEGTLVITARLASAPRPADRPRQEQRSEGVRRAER
The data set is described as follows: coupled NADH assay, initial rate; CD shift also seen with […] Asn. The settings on record: allosteric activator; co-substrates Ac-CoA and SveAcs. The class given is biochemical.

In another data set the target is T3, AmiPatA (Actinosynnema mirum, UniProt C6WC99).
T3 construct: gene Amir_5672; gene amplified from genomic DNA, pET-28a, E. coli BL21-DE3, purified; ACT-GNAT domains
T3 sequence (C6WC99 1-372): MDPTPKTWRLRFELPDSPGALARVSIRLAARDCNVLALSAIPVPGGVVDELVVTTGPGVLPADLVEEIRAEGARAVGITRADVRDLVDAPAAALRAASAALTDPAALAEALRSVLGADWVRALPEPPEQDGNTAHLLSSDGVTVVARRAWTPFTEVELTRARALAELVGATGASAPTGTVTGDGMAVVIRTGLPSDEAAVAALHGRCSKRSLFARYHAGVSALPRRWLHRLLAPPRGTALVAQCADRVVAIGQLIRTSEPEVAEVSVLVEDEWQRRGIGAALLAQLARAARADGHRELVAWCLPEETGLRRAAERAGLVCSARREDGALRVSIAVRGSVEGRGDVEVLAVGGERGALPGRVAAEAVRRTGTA
The data set is described as follows: coupled NADH assay, initial rate; CD shift also seen. In kind it is biochemical. The settings on record: allosteric activator, ACT domain; co-substrates Ac-CoA and AmiAcs.

Substrate in the data set “purified protein”: CC(=O)SCCNC(=O)CCNC(=O)[C@H](O)C(C)(C)COP(=O)(O)OP(=O)(O)OC[C@H]1O[C@@H](n2cnc3c(N)ncnc32)[C@H](O)[C@@H]1OP(=O)(O)O
The data set is described as follows: purified protein. The class given is biochemical, Actinosynnema mirum. As to conditions: co-substrate AmiAcs; no Cys.

T1 sequence (F2RA54 entry or part of it K112A): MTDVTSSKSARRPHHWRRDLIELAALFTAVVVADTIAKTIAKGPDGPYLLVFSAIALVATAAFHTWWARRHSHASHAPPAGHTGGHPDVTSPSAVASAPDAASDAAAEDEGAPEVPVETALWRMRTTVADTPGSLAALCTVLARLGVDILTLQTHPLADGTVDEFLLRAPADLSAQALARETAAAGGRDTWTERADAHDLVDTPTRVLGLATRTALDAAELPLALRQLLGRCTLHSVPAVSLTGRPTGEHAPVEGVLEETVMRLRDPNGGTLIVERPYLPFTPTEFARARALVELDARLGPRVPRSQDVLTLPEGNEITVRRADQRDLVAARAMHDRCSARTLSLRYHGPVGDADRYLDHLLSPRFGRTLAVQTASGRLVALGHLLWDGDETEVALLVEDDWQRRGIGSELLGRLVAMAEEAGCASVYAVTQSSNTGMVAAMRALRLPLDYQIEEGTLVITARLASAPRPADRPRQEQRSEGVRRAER

Take `NC(=O)C[C@H](N)C(=O)O` [Asn]: the activation still observed result on SvePatA [1] is on record as “Allosteric effect of Asn on SvePatA activity was still observed in two mutants K112A”. Besides, at SvePatA [2], the “% of initial rate without Asn (2.23 to 3.92 nmol NADH per min/ml)” value was found to be 176%.

As to `N[C@@H](CS)C(=O)O` [Cys], the “% of initial rate without Cys (3.8 to 6.8 μM/min)” value on AmiPatA was determined as 179%.

B1: AmiPatA (Actinosynnema mirum DSM 43827) (protein)
chain: MDPTPKTWRLRFELPDSPGALARVSIRLAARDCNVLALSAIPVPGGVVDELVVTTGPGVLPADLVEEIRAEGARAVGITRADVRDLVDAPAAALRAASAALTDPAALAEALRSVLGADWVRALPEPPEQDGNTAHLLSSDGVTVVARRAWTPFTEVELTRARALAELVGATGASAPTGTVTGDGMAVVIRTGLPSDEAAVAALHGRCSKRSLFARYHAGVSALPRRWLHRLLAPPRGTALVAQCADRVVAIGQLIRTSEPEVAEVSVLVEDEWQRRGIGAALLAQLARAARADGHRELVAWCLPEETGLRRAAERAGLVCSARREDGALRVSIAVRGSVEGRGDVEVLAVGGERGALPGRVAAEAVRRTGTA
notes: gene amplified from genomic DNA, pET-28a, E. coli BL21-DE3, purified; ACT-GNAT domains
Take B1: in the data set “purified protein”, the Michaelis-Menten constant (Km) stood at 5.5 ± 1.1 µM, the kcat was determined as 0.19 ± 0.008 s⁻¹ and the kcat/Km worked out at 36000 ± 8000 M⁻¹ s⁻¹.
